Measurements reported in the NIST ThermoML archive (doi:10.1021/je900093h).
± gives the expanded uncertainty stated by the source.

Assay: molar heat capacity at saturation pressure
Settings: Vacuum adiabatic calorimetry

CCCCCCCCCC(=O)OCC [ethyl decanoate]
Settings	molar heat capacity [J/K/mol]
204.7 K, Crystal	251.8 ± 2
205.19 K, Crystal	252 ± 2
205.24 K, Crystal	252.1 ± 2
205.57 K, Crystal	252.3 ± 2
206.25 K, Crystal	253.2 ± 2.1
206.66 K, Crystal	253.6 ± 2.1
207.14 K, Crystal	254 ± 2.1
207.19 K, Crystal	254 ± 2.1
207.62 K, Crystal	254.3 ± 2.1
208.2 K, Crystal	255.2 ± 2.1
208.63 K, Crystal	255.4 ± 2.1
209.09 K, Crystal	255.7 ± 2.1
209.14 K, Crystal	255.7 ± 2.1
209.67 K, Crystal	256.4 ± 2.1
210.15 K, Crystal	257 ± 2.1
210.59 K, Crystal	257.3 ± 2.1
211.04 K, Crystal	257.6 ± 2.1
211.09 K, Crystal	257.8 ± 2.1
211.71 K, Crystal	258.4 ± 2.1
212.1 K, Crystal	259 ± 2.1
212.56 K, Crystal	259.1 ± 2.1
212.98 K, Crystal	259.7 ± 2.1
213.04 K, Crystal	259.7 ± 2.1
213.75 K, Crystal	260.3 ± 2.1
214.05 K, Crystal	261 ± 2.1
214.52 K, Crystal	261.2 ± 2.1
214.93 K, Crystal	261.7 ± 2.1
214.99 K, Crystal	261.6 ± 2.1
215.78 K, Crystal	262.5 ± 2.1
215.99 K, Crystal	263.2 ± 2.1
216.49 K, Crystal	263.3 ± 2.1
216.87 K, Crystal	263.9 ± 2.1
216.93 K, Crystal	263.7 ± 2.1
217.81 K, Crystal	264.8 ± 2.1
217.93 K, Crystal	265.3 ± 2.1
218.46 K, Crystal	265.4 ± 2.1
218.81 K, Crystal	266.1 ± 2.2
218.87 K, Crystal	265.9 ± 2.2
219.84 K, Crystal	267.1 ± 2.2
219.87 K, Crystal	267.5 ± 2.2
220.42 K, Crystal	267.6 ± 2.2
220.75 K, Crystal	268.4 ± 2.2
220.81 K, Crystal	268.3 ± 2.2
221.82 K, Crystal	269.7 ± 2.2
221.86 K, Crystal	269.6 ± 2.2
222.39 K, Crystal	270 ± 2.2
222.68 K, Crystal	270.8 ± 2.2
222.75 K, Crystal	270.5 ± 2.2
223.76 K, Crystal	272.3 ± 2.2
223.88 K, Crystal	272.1 ± 2.2
224.36 K, Crystal	272.5 ± 2.2
224.61 K, Crystal	273.3 ± 2.2
224.69 K, Crystal	272.9 ± 2.2
225.69 K, Crystal	274.9 ± 2.2
225.89 K, Crystal	274.9 ± 2.2
226.33 K, Crystal	275.1 ± 2.2
226.54 K, Crystal	276.1 ± 2.2
226.62 K, Crystal	275.6 ± 2.2
227.62 K, Crystal	277.6 ± 2.2
227.9 K, Crystal	277.8 ± 2.2
228.29 K, Crystal	277.8 ± 2.2
228.46 K, Crystal	278.4 ± 2.3
228.54 K, Crystal	278.3 ± 2.3
229.55 K, Crystal	280.1 ± 2.3
229.89 K, Crystal	280.6 ± 2.3
230.26 K, Crystal	280.8 ± 2.3
230.47 K, Crystal	280.9 ± 2.3
232.23 K, Crystal	284 ± 2.3
232.58 K, Crystal	284.3 ± 2.3
234.19 K, Crystal	287.3 ± 2.3
234.97 K, Crystal	289 ± 2.3
236.16 K, Crystal	291.1 ± 2.4
237.29 K, Crystal	294.1 ± 2.4
238.11 K, Crystal	296.8 ± 2.4
239.59 K, Crystal	301 ± 2.4
240.07 K, Crystal	303 ± 2.5
241.85 K, Crystal	310.4 ± 2.5
244.07 K, Crystal	325.4 ± 2.6
246.21 K, Crystal	353.6 ± 2.9
254.4 K, Liquid	386.7 ± 3.1
255.37 K, Liquid	387 ± 3.1
256.65 K, Liquid	387.2 ± 3.1
257.1 K, Liquid	387.4 ± 3.1
257.94 K, Liquid	387.5 ± 3.1
258.76 K, Liquid	387.7 ± 3.1
259.18 K, Liquid	387.9 ± 3.1
260.12 K, Liquid	388.2 ± 3.1
260.59 K, Liquid	388.3 ± 3.1
261.71 K, Liquid	388.7 ± 3.1
262.29 K, Liquid	388.9 ± 3.1
262.56 K, Liquid	388.9 ± 3.1
264.24 K, Liquid	389.3 ± 3.1
264.47 K, Liquid	389.5 ± 3.1
264.54 K, Liquid	389.4 ± 3.1
266.52 K, Liquid	390 ± 3.1
266.65 K, Liquid	390.1 ± 3.1
266.77 K, Liquid	390.1 ± 3.1
268.5 K, Liquid	390.8 ± 3.2
268.83 K, Liquid	390.8 ± 3.2
269.31 K, Liquid	391 ± 3.2
270.48 K, Liquid	391.6 ± 3.2
271.01 K, Liquid	391.6 ± 3.2
271.84 K, Liquid	391.9 ± 3.2
272.46 K, Liquid	392.3 ± 3.2
273.19 K, Liquid	392.4 ± 3.2
274.38 K, Liquid	392.9 ± 3.2
274.44 K, Liquid	393 ± 3.2
275.37 K, Liquid	393.2 ± 3.2
276.42 K, Liquid	393.8 ± 3.2
276.91 K, Liquid	394 ± 3.2
277.55 K, Liquid	394.1 ± 3.2
278.4 K, Liquid	394.5 ± 3.2
279.45 K, Liquid	394.9 ± 3.2
279.73 K, Liquid	394.9 ± 3.2
280.38 K, Liquid	395.3 ± 3.2
281.91 K, Liquid	396 ± 3.2
281.98 K, Liquid	396.1 ± 3.2
282.36 K, Liquid	396.2 ± 3.2
284.09 K, Liquid	396.8 ± 3.2
284.34 K, Liquid	397.1 ± 3.2
284.52 K, Liquid	397.2 ± 3.2
286.27 K, Liquid	397.8 ± 3.2
286.32 K, Liquid	397.8 ± 3.2
287.05 K, Liquid	398.3 ± 3.2
288.3 K, Liquid	398.7 ± 3.2
288.45 K, Liquid	398.8 ± 3.2
289.59 K, Liquid	399.4 ± 3.2
290.28 K, Liquid	399.7 ± 3.2
290.63 K, Liquid	399.9 ± 3.2
292.13 K, Liquid	400.5 ± 3.2
292.26 K, Liquid	400.7 ± 3.2
292.81 K, Liquid	401 ± 3.2
294.23 K, Liquid	401.6 ± 3.2
294.66 K, Liquid	401.8 ± 3.2
294.99 K, Liquid	401.9 ± 3.2
296.21 K, Liquid	402.5 ± 3.2
297.17 K, Liquid	403.1 ± 3.3
297.19 K, Liquid	403 ± 3.3
298.19 K, Liquid	403.4 ± 3.3
299.72 K, Liquid	404.3 ± 3.3
300.16 K, Liquid	404.4 ± 3.3
302.14 K, Liquid	405.5 ± 3.3
302.25 K, Liquid	405.6 ± 3.3
304.12 K, Liquid	406.5 ± 3.3
304.78 K, Liquid	406.9 ± 3.3
306.09 K, Liquid	407.7 ± 3.3
307.31 K, Liquid	408.3 ± 3.3
308.07 K, Liquid	408.7 ± 3.3
309.83 K, Liquid	409.6 ± 3.3
310.05 K, Liquid	409.6 ± 3.3
312.02 K, Liquid	410.7 ± 3.3
312.36 K, Liquid	411 ± 3.3
314 K, Liquid	411.8 ± 3.3
314.88 K, Liquid	412.3 ± 3.3
315.98 K, Liquid	412.8 ± 3.3
317.41 K, Liquid	413.8 ± 3.3
317.96 K, Liquid	414 ± 3.3
319.93 K, Liquid	415 ± 3.3
319.94 K, Liquid	415 ± 3.3
321.92 K, Liquid	416.3 ± 3.4
322.45 K, Liquid	416.4 ± 3.4
323.9 K, Liquid	417.2 ± 3.4
324.96 K, Liquid	417.7 ± 3.4
325.88 K, Liquid	418.2 ± 3.4
327.48 K, Liquid	419.3 ± 3.4
327.86 K, Liquid	419.2 ± 3.4
329.84 K, Liquid	420.3 ± 3.4
330 K, Liquid	420.6 ± 3.4
331.82 K, Liquid	421.5 ± 3.4
332.51 K, Liquid	422 ± 3.4
333.8 K, Liquid	422.7 ± 3.4
335.02 K, Liquid	423.5 ± 3.4
335.78 K, Liquid	424 ± 3.4
337.54 K, Liquid	424.9 ± 3.4
337.76 K, Liquid	425.1 ± 3.4
339.74 K, Liquid	426.2 ± 3.4
340.05 K, Liquid	426.4 ± 3.4
341.72 K, Liquid	427.3 ± 3.4
342.56 K, Liquid	428 ± 3.5
343.7 K, Liquid	428.7 ± 3.5
345.06 K, Liquid	429.5 ± 3.5
345.68 K, Liquid	429.8 ± 3.5
347.57 K, Liquid	430.9 ± 3.5
347.66 K, Liquid	431 ± 3.5
349.64 K, Liquid	432.2 ± 3.5
350.07 K, Liquid	432.4 ± 3.5
351.62 K, Liquid	433.3 ± 3.5
352.57 K, Liquid	433.9 ± 3.5
353.61 K, Liquid	434.3 ± 3.5
355.06 K, Liquid	435.2 ± 3.5
355.59 K, Liquid	435.6 ± 3.5
357.56 K, Liquid	436.8 ± 3.5
357.57 K, Liquid	436.8 ± 3.5
359.55 K, Liquid	438 ± 3.5
360.05 K, Liquid	438.2 ± 3.5
362.54 K, Liquid	439.8 ± 3.5
365.03 K, Liquid	441.4 ± 3.6
367.52 K, Liquid	443 ± 3.6
